Calls of active or inactive are those of the source. No cut-off for these calls is given here.

System in the first data set: not listed separately
As to the kind of experiment: Toxicity in BALB/c mouse assessed as survival fraction at 50 mg/kg, po after 9 weeks. The settings on record: in vivo. The class given is organism-based. Details: dose 50 mg/kg, route oral.
For `O=C(Cn1ccnc1[N+](=O)[O-])NCc1ccccc1` [BENZNIDAZOLE], the survival at 1512 h came to 60%.

A further data set relates to Trypanosoma cruzi. Kind of data set: Antitrypanosomal activity against Trypanosoma cruzi bloodstream trypomastigote in mouse blood assessed as lysis of trypomastigotes at 250 ug/mL after 24 hrs relative to control. It counts as functional.
Conditions: not given
Take `CN(C)CCOCCn1nc(O)c2cc([N+](=O)[O-])ccc21`: the Activity is 18%.
The same measure, in the same setting: with `CN(C)Cc1ccccc1Cn1nc(O)c2cc([N+](=O)[O-])ccc21` the figure was 0%; with `CN(C)CCCCCn1nc(O)c2cc([N+](=O)[O-])ccc21`, 29%; with `CN(C)c1ccc(C(=C2C=CC(=[N+](C)C)C=C2)c2ccc(N(C)C)cc2)cc1.[Cl-]` [GENTIAN VIOLET], 100%.
Same read-out and setting: with `COc1nn(CCOCCN(C)C)c2ccc([N+](=O)[O-])cc12.Cl` the figure was 77%; with `O=[N+]([O-])c1ccc2c(c1)c(OCc1ccccc1)nn2CCOCCN1CCCCC1`, 44%; with `O=[N+]([O-])c1ccc2c(c1)c(O)nn2CCOCCN1CCCCC1`, 53%.

Another data set concerns J774. As to the kind of experiment: Cytotoxicity in mouse J774 cells at 100 ug/mL after 48 hrs. The class given is cell-based. To be noted: j774, 48 h.
Take `CN(C)CCOCCn1nc(O)c2cc([N+](=O)[O-])ccc21`: the Activity result is recorded as “Non-toxic”.
The same measure, in the same setting: the value for `CN(C)Cc1ccccc1Cn1nc(O)c2cc([N+](=O)[O-])ccc21` was “Non-toxic”; that for `CN(C)CCCCCn1nc(O)c2cc([N+](=O)[O-])ccc21` was “Non-toxic”; that for `COc1nn(CCOCCN(C)C)c2ccc([N+](=O)[O-])cc12.Cl` was “Non-toxic”.
Still for that read-out and setting: with `O=[N+]([O-])c1ccc2c(c1)c(OCc1ccccc1)nn2CCOCCN1CCCCC1` the entry was “Non-toxic”.
For the molecule `O=[N+]([O-])c1ccc2c(c1)c(O)nn2CCOCCN1CCCCC1`, the Activity result is “Non-toxic”.

Another data set has as its system Trypanosoma cruzi. Kind of data set: Antitrypanosomal activity against Trypanosoma cruzi bloodstream trypomastigote infected in BALB/c mouse assessed as parasitemia at 50 mg/kg, po after 60 days by colorimetric method. On the set-up: dose 50 mg/kg.
Conditions: not given
The class given is functional, organism-based.
For `O=C(Cn1ccnc1[N+](=O)[O-])NCc1ccccc1` [BENZNIDAZOLE], the result was Active.

The next data set deals with J774. As to the kind of experiment: Cytotoxicity in mouse J774 cells at 100 ug/mL after 24 hrs. It counts as cell-based. To be noted: j774, 24 h.
`CN(C)CCOCCn1nc(O)c2cc([N+](=O)[O-])ccc21`: the Activity result is reported as “Non-toxic”.
On the same count and under the same terms, with `CN(C)Cc1ccccc1Cn1nc(O)c2cc([N+](=O)[O-])ccc21` the entry was “Non-toxic”.
Regarding `CN(C)CCCCCn1nc(O)c2cc([N+](=O)[O-])ccc21`, the Activity result is on record as “Non-toxic”.
For `COc1nn(CCOCCN(C)C)c2ccc([N+](=O)[O-])cc12.Cl`, the Activity entry was “Non-toxic”.
The same measure, in the same setting: with `O=[N+]([O-])c1ccc2c(c1)c(OCc1ccccc1)nn2CCOCCN1CCCCC1` the entry was “Non-toxic”; with `O=[N+]([O-])c1ccc2c(c1)c(O)nn2CCOCCN1CCCCC1`, “Non-toxic”.

The test system of another data set is Trypanosoma cruzi. As to the kind of experiment: Antitrypanosomal activity against Trypanosoma cruzi bloodstream trypomastigote infected in BALB/c mouse assessed as antibodies at 50 mg/kg, po after 60 days by colorimetric method. It counts as functional, organism-based. On the set-up: dose 50 mg/kg.
Conditions: not given
Turning to `O=C(Cn1ccnc1[N+](=O)[O-])NCc1ccccc1` [BENZNIDAZOLE], the result was Active.

For the origin of these results see ChEMBL document CHEMBL1137697, “In vitro and in vivo antitrypanosomatid activity of 5-nitroindazoles” (Eur J Med Chem, 2009).
